Experimental data from paper PMC7316778 (Nature Communications, 2020).
Where “and” joins values, the source holds several entries; their conditions need not be identical. Equal values may be shown once. Read-outs that look alike come from different tables or passages of the source.

Columns and labels:
[1] = target: MAP3K14 (NIK) (Homo sapiens, UniProt Q99558); assay: SelectScreen kinase assay
Experimental: (§3) Selectivity profiling assays were performed by the Invitrogen SelectScreen™ Services. […] The concentration of ATP was selected to be equal to the KM, unless indicated otherwise.

[2] = target: T1, FES^S700C (Homo sapiens, UniProt P07332, S700C); assay: Time-dependent probe displacement by WEL033 in lysate
[3] = target: PIK3CA/PIK3R1 (p110a/p85a) (Homo sapiens, UniProt P42336); assay: SelectScreen kinase assay; conditions: for Inhibition at 1 µM (%): PIK3CA/PIK3R1 (p110 alpha/p85 alpha), Adapta, ATP Km app
Experimental: as §3

[4] = target: DMPK (Homo sapiens, UniProt Q09013); assay: SelectScreen kinase assay
Experimental: as §3

[5] = target: PRKCG (PKC gamma) (Homo sapiens, UniProt P05129); assay: SelectScreen kinase assay; conditions: for Inhibition at 1 µM (%): PRKCG (PKC gamma), ZLYTE, ATP Km app
Experimental: as §3

[6] = target: AURKB (Aurora B) (Homo sapiens, UniProt Q96GD4); assay: SelectScreen kinase assay
Experimental: as §3

[7] = target: NTRK2 (TRKB) (Homo sapiens, UniProt Q16620); assay: SelectScreen kinase assay
Experimental: as §3

[8] = tested on: WT HL-60 cells; assay: Proliferation ratio during macrophage differentiation; type: cell-based, human; conditions: Figure 6e
Experimental: (§1) Cells were pretreated with vehicle or WEL028 (100 or 1000 nM, 1 h) prior to induction of differentiation towards monocytes/macrophages with PMA (16 nM, 48 h). Medium was refreshed with growth medium containing WEL028 and PMA after 24 h to maintain full FES inhibition. […] Threshold for CD11b-positive cells was determined using isotype control antibody. […] Kinases with native cysteine at DFG-1 position are shown in bold. All data represent means ± SEM.
(§2) Cell lines were purchased at ATCC (HEK293T: ATCC® CRL-11268™, U2OS: ATCC® HTB-96™, HL-60: ATCC® CCL-240™) and were tested on regular basis for mycoplasma contamination. Cultures were discarded after 2–3 months of use. HEK293T (human embryonic kidney) and U2OS (human osteosarcoma) cells were cultured at 37 °C under 7% CO2 in DMEM containing phenol red, stable glutamine, 10% (v/v) high iron newborn calf serum (Seradigm), penicillin and streptomycin (200 μg/mL each; Duchefa). Medium was refreshed every 2–3 days and cells were passaged two times a week at 80–90% confluence. HL-60 (human promyeloblast) cells were cultured at 37 °C under 5% CO2 in HEPES-supplemented RPMI containing phenol red, stable glutamine, 10% (v/v) fetal calf serum (Biowest), penicillin and streptomycin (200 μg/mL each), unless stated otherwise. Cell density was maintained between 0.2 × 10^6 and 2.0 × 10^6 cells/mL. Cell viability was assessed by Trypan Blue exclusion and quantification using a TC20™ Automated Cell Counter (Bio-Rad).

[9] = tested on: FES^S700C HL-60 cells; assay: as above; type: cell-based, human; conditions: for Proliferation ratio: Figure 6e, S700C
Experimental: as §1, §2

[10] = target: MELK (Homo sapiens, UniProt Q14680); assay: SelectScreen kinase assay
Experimental: as §3

[11] = target: T1, FES^S700C; assay: In situ two-step labeling of transfected HEK293T cells (click chemistry); type: cell-based; design: expressed in transfected cells; host or cells: HEK293T (transient, PEI)
[12] = target: INSR (Homo sapiens, UniProt P06213); assay: SelectScreen kinase assay
Experimental: as §3

[13] = target: T2, BRSK2 (Homo sapiens, UniProt Q8IWQ3); assay: SelectScreen kinase assay
T2 sequence (Q8IWQ3 1-736): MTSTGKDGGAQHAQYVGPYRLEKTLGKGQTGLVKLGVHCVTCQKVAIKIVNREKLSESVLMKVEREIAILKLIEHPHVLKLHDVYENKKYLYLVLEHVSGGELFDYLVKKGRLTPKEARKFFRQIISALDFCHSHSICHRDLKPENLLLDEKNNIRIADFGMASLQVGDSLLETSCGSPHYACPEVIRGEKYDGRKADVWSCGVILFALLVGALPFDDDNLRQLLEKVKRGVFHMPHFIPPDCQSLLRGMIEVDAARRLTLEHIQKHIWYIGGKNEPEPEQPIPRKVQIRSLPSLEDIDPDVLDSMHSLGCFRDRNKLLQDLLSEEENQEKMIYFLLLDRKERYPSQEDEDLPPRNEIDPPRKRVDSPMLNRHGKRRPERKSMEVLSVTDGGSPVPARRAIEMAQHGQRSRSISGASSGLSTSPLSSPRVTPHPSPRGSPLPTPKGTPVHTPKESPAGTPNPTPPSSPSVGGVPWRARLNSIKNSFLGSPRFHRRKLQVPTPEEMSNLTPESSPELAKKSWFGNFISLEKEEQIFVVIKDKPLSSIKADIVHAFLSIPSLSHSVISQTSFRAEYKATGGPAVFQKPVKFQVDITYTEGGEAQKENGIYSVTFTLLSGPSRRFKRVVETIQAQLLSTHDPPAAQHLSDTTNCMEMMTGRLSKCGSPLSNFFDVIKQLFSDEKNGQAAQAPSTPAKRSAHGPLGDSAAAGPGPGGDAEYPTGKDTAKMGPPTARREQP
Experimental: as §3

[14] = target: DYRK3 (Homo sapiens, UniProt O43781); assay: SelectScreen kinase assay
Experimental: as §3

[15] = target: CDK18/cyclin Y (Homo sapiens, UniProt Q07002); assay: SelectScreen kinase assay; conditions: for Inhibition at 1 µM (%): CDK18/cyclin Y, ZLYTE, ATP Km app
Experimental: as §3

[16] = 1 h, 1 μM WEL028, 1 h preincubation

T1 sequence (P07332 whole entry S700C): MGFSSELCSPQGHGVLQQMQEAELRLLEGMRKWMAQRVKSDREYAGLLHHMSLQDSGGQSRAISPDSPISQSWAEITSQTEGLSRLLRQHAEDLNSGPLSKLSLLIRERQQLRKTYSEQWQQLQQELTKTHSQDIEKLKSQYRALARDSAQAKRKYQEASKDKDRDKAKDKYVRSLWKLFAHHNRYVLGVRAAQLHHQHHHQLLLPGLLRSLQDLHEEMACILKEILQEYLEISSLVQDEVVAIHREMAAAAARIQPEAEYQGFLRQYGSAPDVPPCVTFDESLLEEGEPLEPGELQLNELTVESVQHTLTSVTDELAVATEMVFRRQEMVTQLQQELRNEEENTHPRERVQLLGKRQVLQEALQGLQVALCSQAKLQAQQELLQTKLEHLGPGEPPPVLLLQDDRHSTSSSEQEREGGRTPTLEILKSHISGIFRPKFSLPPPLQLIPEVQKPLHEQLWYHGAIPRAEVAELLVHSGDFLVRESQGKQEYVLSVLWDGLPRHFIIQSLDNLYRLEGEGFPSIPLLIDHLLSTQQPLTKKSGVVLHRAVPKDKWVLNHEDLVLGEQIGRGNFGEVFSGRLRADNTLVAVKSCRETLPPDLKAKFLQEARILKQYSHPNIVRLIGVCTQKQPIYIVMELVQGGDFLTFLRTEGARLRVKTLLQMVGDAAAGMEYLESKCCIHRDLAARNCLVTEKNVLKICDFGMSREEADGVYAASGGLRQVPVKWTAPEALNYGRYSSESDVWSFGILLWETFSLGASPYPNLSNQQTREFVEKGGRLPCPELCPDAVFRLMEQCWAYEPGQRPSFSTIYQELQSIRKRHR
Chain of PIK3CA/PIK3R1 (p110a/p85a) (P42336 whole entry): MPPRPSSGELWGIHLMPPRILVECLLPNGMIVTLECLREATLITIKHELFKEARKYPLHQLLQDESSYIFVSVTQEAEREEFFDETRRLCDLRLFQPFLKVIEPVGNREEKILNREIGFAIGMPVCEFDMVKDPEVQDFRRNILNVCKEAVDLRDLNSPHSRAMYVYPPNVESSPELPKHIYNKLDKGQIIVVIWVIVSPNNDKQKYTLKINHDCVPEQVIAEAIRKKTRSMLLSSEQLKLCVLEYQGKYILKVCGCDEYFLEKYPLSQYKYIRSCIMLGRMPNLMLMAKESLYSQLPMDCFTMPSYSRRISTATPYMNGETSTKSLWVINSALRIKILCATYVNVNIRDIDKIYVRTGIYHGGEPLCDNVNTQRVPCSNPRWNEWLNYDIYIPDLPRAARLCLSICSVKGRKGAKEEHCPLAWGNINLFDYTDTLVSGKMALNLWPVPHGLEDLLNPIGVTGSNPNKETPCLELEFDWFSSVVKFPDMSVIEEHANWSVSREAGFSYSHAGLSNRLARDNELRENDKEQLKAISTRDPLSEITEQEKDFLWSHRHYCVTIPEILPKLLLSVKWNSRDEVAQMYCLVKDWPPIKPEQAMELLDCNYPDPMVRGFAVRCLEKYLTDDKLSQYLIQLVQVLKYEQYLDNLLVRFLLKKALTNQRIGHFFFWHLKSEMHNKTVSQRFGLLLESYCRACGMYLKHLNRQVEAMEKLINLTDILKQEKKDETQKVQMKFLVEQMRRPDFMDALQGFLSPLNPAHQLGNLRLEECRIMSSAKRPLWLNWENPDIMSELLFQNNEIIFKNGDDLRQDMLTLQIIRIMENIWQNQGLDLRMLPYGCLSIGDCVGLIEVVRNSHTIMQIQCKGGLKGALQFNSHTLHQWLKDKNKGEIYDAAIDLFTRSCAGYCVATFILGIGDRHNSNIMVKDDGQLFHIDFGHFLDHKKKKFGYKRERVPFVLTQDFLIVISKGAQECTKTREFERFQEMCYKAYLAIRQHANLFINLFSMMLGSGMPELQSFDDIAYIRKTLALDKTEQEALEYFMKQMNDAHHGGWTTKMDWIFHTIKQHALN
Chain of PIK3CA/PIK3R1 (p110a/p85a) (P27986 whole entry partner): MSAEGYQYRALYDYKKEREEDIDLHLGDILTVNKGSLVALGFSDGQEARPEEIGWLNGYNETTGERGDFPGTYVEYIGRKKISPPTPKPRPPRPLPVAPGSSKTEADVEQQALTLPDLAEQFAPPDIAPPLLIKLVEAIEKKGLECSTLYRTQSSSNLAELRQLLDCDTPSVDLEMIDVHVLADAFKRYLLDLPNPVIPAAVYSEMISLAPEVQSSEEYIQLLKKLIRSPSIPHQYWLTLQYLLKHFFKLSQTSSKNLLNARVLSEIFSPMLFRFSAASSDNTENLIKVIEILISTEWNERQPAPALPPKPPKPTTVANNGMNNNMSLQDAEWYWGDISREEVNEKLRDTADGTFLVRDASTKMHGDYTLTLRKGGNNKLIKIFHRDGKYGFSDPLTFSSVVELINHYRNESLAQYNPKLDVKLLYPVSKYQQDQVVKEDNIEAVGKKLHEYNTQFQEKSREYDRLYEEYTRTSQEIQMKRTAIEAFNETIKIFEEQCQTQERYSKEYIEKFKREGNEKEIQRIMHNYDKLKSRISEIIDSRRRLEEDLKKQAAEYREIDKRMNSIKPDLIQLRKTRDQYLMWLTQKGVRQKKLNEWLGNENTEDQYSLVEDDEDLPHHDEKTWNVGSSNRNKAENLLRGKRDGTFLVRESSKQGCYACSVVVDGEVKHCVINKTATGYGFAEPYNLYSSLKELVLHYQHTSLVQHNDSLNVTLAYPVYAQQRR
Chain of DYRK3 (O43781 whole entry): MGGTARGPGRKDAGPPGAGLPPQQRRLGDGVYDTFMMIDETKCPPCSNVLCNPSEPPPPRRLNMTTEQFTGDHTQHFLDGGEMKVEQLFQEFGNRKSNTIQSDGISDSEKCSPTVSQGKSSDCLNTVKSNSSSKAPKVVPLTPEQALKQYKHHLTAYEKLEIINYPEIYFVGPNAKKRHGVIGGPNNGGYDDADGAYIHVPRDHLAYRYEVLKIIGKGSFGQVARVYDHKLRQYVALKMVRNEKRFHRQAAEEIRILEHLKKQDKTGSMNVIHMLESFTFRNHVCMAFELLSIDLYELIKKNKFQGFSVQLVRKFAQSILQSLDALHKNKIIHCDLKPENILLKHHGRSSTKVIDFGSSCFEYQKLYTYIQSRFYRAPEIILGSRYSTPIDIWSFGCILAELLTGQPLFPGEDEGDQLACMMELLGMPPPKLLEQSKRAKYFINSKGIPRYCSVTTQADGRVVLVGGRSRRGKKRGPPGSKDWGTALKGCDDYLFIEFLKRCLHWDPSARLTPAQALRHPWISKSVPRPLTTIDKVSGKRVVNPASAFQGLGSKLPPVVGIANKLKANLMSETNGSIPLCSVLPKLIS
Chain of AURKB (Aurora B) (Q96GD4 whole entry): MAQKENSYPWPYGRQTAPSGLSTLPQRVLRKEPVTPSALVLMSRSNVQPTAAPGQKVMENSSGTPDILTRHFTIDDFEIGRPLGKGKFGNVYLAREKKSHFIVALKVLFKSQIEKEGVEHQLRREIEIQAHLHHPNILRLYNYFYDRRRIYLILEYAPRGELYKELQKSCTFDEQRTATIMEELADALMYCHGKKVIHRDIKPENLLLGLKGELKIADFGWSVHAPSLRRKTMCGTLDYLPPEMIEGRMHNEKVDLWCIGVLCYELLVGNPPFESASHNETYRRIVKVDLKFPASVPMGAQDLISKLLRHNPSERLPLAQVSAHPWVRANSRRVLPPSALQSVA
Chain of NTRK2 (TRKB) (Q16620 32-822): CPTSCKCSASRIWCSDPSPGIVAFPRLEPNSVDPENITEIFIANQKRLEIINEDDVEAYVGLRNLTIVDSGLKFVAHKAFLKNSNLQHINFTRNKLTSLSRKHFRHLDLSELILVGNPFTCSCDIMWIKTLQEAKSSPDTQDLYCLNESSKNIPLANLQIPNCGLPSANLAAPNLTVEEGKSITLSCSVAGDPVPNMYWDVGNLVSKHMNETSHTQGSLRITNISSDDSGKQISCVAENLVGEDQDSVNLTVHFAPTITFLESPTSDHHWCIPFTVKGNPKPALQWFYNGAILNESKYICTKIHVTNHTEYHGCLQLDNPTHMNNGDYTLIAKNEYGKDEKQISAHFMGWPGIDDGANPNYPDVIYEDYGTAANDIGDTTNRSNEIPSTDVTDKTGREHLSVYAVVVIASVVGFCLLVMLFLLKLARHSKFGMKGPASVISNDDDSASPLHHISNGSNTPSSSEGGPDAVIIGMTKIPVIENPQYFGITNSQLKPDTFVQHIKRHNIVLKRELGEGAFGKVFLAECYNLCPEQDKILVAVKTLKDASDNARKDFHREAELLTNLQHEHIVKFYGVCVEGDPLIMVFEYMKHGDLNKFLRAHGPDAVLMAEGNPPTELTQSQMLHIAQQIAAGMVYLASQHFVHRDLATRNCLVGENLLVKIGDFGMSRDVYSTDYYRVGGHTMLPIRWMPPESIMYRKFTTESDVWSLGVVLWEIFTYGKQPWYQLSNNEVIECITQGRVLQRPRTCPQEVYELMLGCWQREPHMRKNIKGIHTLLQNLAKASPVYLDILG

Structure (SMILES): C#CCOc1ccc(Nc2ncc(Cl)c(Nc3ccccc3NC(=O)C=C)n2)c(OC)c1 [Compound 6]
- inhibition at 1 µM [1, 16]: 3%
- Inhibition at 1 µM (%) ([1]; MAP3K14 (NIK), 1 µM, LanthaScreen Binding, listed as WEL028, 1 µM): 7% and -1%
- IC80 ([2]; read-out: IC80-concentration (20% remaining activity)): 27 nM
- Mode of action ([2]; recovery of WEL033 labeling after inhibitor at IC80): irreversible
- inhibition at 1 µM [3, 16]: 14%
- Inhibition at 1 µM (%) [3]: 19%
- Inhibition at 1 µM (%) ([3]; listed as WEL028, 1 µM): 9%
- inhibition at 1 µM [4, 16]: 3%
- Inhibition at 1 µM (%) ([4]; DMPK, 1 µM, LanthaScreen Binding, listed as WEL028, 1 µM): 1% and 5%
- inhibition at 1 µM [5, 16]: 1%
- Inhibition at 1 µM (%) [5]: -3%
- Inhibition at 1 µM (%) ([5]; listed as WEL028, 1 µM): 5%
- inhibition at 1 µM [6, 16]: 37%
- Inhibition at 1 µM (%) ([6]; AURKB (Aurora B), 1 µM, ZLYTE, ATP Km app, listed as WEL028, 1 µM): 32%
- inhibition at 1 µM ([6]; read-out: Inhibition at 1 µM (%), AURKB (Aurora B), 1 µM, ZLYTE, ATP Km app): 41%
- inhibition at 1 µM [7, 16]: 5%
- Inhibition at 1 µM (%) ([7]; NTRK2 (TRKB), 1 µM, ZLYTE, ATP Km app, listed as WEL028, 1 µM): 0% and 9%
- Proliferation ratio ([8]; WEL028 100 nM): 1.995 and 1.877 and 1.706
- Proliferation ratio ([8]; WEL028 1 µM): 2.7225 and 2.805 and 3.0525
- Cell proliferation ([9]; 100 nM WEL028 vs vehicle): decreased to identical levels
- Cell proliferation ([9]; 1 µM WEL028): less pronounced decrease in proliferation
- Proliferation ratio ([9]; WEL028 100 nM): 1.219 and 1.226 and 1.503
- Proliferation ratio ([9]; WEL028 1 µM): 2.372 and 2.5075 and 3.084
- inhibition at 1 µM [10, 16]: -2%
- Inhibition at 1 µM (%) ([10]; MELK, 1 µM, ZLYTE, ATP Km app, listed as WEL028, 1 µM): -3%
- Cell permeability ([11]; living HEK293T cells): cell-permeable
- Concentration sufficient to fully block labeling of FES^S700C ([11]; living HEK293T cells): 100 nM
- IC50 ([11]; transfected HEK293T cells treated with WEL028, click chemistry, n = 3, read-out: pIC50, labeling of FES^S700C in live cells (converted)): 25.1 nM
- inhibition at 1 µM ([12]; 1 h): 11%
- inhibition at 1 µM ([12]; read-out: Inhibition at 1 µM (%)): 11%
- inhibition at 1 µM [13, 16]: 7%
- Inhibition at 1 µM (%) ([13]; BRSK2, 1 µM, LanthaScreen Binding, listed as WEL028, 1 µM): 8%
- inhibition at 1 µM ([13]; read-out: Inhibition at 1 µM (%), BRSK2, 1 µM, LanthaScreen Binding): 7%
- inhibition at 1 µM [14, 16]: 2%
- Inhibition at 1 µM (%) ([14]; DYRK3, 1 µM, ZLYTE, ATP Km app, listed as WEL028, 1 µM): 0% and 4%
- inhibition at 1 µM [15, 16]: 1%
- Inhibition at 1 µM (%) [15]: 3%
- Inhibition at 1 µM (%) ([15]; listed as WEL028, 1 µM): -1%
